# Assay results published in article PMC10390775, “CETP inhibitor evacetrapib enters mouse brain tissue” (Frontiers in Pharmacology, 2023).
# Where “and” joins values, the source holds several entries; their conditions need not be identical. Equal entries are not always repeated. Where two headings read alike, the source gives them in different places.
# Assay: Pharmacokinetics of evacetrapib in plasma, liver and brain after a single tail vein injection (UHPLC-MS-qTOF)
# Assay type: in vivo, hCETPtg mice (C57BL/6J background)
# Settings: for Brain peak concentration above plasma IC50: IC50 36 nM in human plasma; for k el: read-out: Kβ (elimination rate constant) (converted); for half-life: read-out: t1/2β (half-life) (converted); for Kp: accounting for residual blood, read-out: Tissue penetration ratio (AUC brain / AUC plasma); for MRT: read-out: MRT (mean residence time); for clearance: read-out: CL (drug clearance) (converted); for Vd: read-out: Vss (volume of distribution at steady state)
# Experimental: The experiment was performed in conformity with the OECD Guidelines 417 ([OECD, 2010]). Male hCETPtg mice were chosen for the pharmacokinetic analysis. Mice were fed Teklad Global Diets #2018 from Envigo, Canada, for 8 weeks starting from birth, followed by a diet change of modified low-fat RD Western diet to match TD.08485 with 1% cholesterol from research diets #D16121201 for a duration of 3–4 weeks. Throughout that period, tap water was provided ad libitum. Initially, evacetrapib was solubilized in 20% of the final solution volume of Kolliphor® EL (pH range 6.0–8.0, cat# C5135) by alternating between 5 min intervals using an ultrasonic water bath at 4°C and a hot water bath at 50°C until complete dissolution. Then, 80% of the final volume was added (isotonic glucose solution 50 g/L glucose containing D-(+)-glucose Sigma cat# G7021 in MilliQ water, sterile filtered).
# CETP inhibitor evacetrapib was administered through tail vein injection at doses of 40 mg/kg body weight (BW) or 120 mg/kg BW. Mice weighed 28.42 ± 3.16 g on the day of injection. They were randomly divided into two groups: 24 mice received a dose of 40 mg/kg BW of evacetrapib and the other 24 received a dose of 120 mg/kg BW. Mice from both groups were euthanized at 0, 0.5, 2, 6, 12, and 24 h after injection. Mice euthanized at later time points had continued access to food and water until the end of the experiment. Blood was collected (300–500 µL) at euthanasia for each mouse by cardiac puncture. Blood plasma was extracted using 10 µL of 1 M EDTA pH 8.0 solution in MilliQ water. Brain and liver tissues were collected immediately after euthanasia, rinsed in 0.9% NaCl solution, and snap-frozen in liquid nitrogen. Samples were stored at −80°C until analysis.
# Sample preparation and digestion for evacetrapib analysis were performed using UHPLC-MS-qTOF. Working solutions from a stock of evacetrapib were prepared at concentrations of 10 μmol, 100 nmol, 1 nmol, 500 pmol, and 125 pmol per ml of methanol. Working solutions of anacetrapib used as an internal standard were prepared at concentrations of 10 μmol, 100 nmol, and 1 nmol per ml from a stock solution.
# Brain and liver samples were homogenized using a polytron supplemented with a carbonate buffer at pH 9.8. The volume was adjusted such that each sample reached a final concentration of 100 mg/ml of buffer. A volume of 0.5 ml of homogenate was transferred to a Pyrex tube and enriched with 100 µL of 1 nmol/ml anacetrapib solution used as an internal standard. Then, samples were extracted twice using 4 ml of saturated ethyl acetate. For each extraction, samples were shaken for 30 min using a lateral shaker, followed by a centrifugation round (20 min, 3,000 rpm, 4°C). Organic phases were collected, combined, and then evaporated until dry under a nitrogen stream in a rotating bath at 40°C. The residues were resuspended in methanol. Samples were vortexed until no residues were left. Resuspended residues for both the brain and liver were then centrifuged (20 min, 3,000 rpm, 4°C). The supernatant was recovered, transferred into new vials, and injected into UHPLC-MS-qTOF. For the plasma measurement, 20 µL of plasma was enriched with 100 µL of 1 nmol/ml anacetrapib solution in a microtube. Evacetrapib was extracted using two steps of ethanol wash (200 µL) followed by an incubation time (30 min, 22°C) and centrifugation (5 min, 16,000 g, 10°C). Samples were dried under a gentle nitrogen stream to separate the liquid phase from the solid phase. The residues were subsequently dissolved in methanol, vortexed until no residues were left, and centrifuged (20 min, 3,000 rpm, 4°C). The supernatant was recovered, transferred into new vials, and injected into UHPLC-MS-qTOF.
# Quantification was performed using a seven-point calibration curve with the internal standard correction prepared in the brain, liver, or plasma, respectively. […]
# [1] = liver, 120 mg/kg BW i.v., 120 mg/kg
# [2] = male, hCETPtg (C57BL/6J background), mouse, brain, iv, 40 mg/kg, brain, 40 mg/kg BW i.v.
# [3] = male, hCETPtg (C57BL/6J background), mouse, brain, iv, 120 mg/kg, brain, 120 mg/kg BW i.v.
# [4] = male, hCETPtg (C57BL/6J background), mouse, iv, plasma, 40 mg/kg BW i.v.
# [5] = male, hCETPtg (C57BL/6J background), mouse, iv, plasma, 120 mg/kg BW i.v.
# [6] = male, hCETPtg (C57BL/6J background), mouse, liver, iv, 40 mg/kg, liver, 40 mg/kg BW i.v.
# [7] = male, hCETPtg (C57BL/6J background), mouse, liver, iv, 120 mg/kg, liver, 120 mg/kg BW i.v.
# [8] = male, hCETPtg (C57BL/6J background), mouse, plasma, iv, 40 mg/kg, plasma, 40 mg/kg BW i.v.
# [9] = male, hCETPtg (C57BL/6J background), mouse, plasma, iv, 120 mg/kg, plasma, 120 mg/kg BW i.v.
smiles,measurement,setting,value
Cc1cc(C)c2c(c1)[C@@H](N(Cc1cc(C(F)(F)F)cc(C(F)(F)F)c1)c1nnn(C)n1)CCCN2C[C@H]1CC[C@H](C(=O)O)CC1 [evacetrapib],Peak concentration in the brain after correction for residual blood,40 mg/kg BW i.v.,1.5 µM
same,"Av. conc. in brain, calculated (corrected for residual blood)","40 mg/kg BW i.v., 0 h",0.00 nmol/g
same,"Av. conc. in brain, measured (not corrected for residual blood)","40 mg/kg BW i.v., 0 h",2.05 nmol/g
same,"Av. conc. in brain, calculated (corrected for residual blood)","40 mg/kg BW i.v., 0.5 h",1.5 nmol/g and 1.53 nmol/g
same,"Av. conc. in brain, measured (not corrected for residual blood)","40 mg/kg BW i.v., 0.5 h",2.21 nmol/g
same,"Av. conc. in brain, calculated (corrected for residual blood)","40 mg/kg BW i.v., 2 h",1.0 nmol/g and 1.03 nmol/g
same,"Av. conc. in brain, measured (not corrected for residual blood)","40 mg/kg BW i.v., 2 h",1.41 nmol/g
same,"Av. conc. in brain, calculated (corrected for residual blood)","40 mg/kg BW i.v., 6 h",0.5 nmol/g and 0.50 nmol/g
same,"Av. conc. in brain, measured (not corrected for residual blood)","40 mg/kg BW i.v., 6 h",0.57 nmol/g
same,"Av. conc. in brain, calculated (corrected for residual blood)","40 mg/kg BW i.v., 12 h",0.1 nmol/g and 0.11 nmol/g
same,"Av. conc. in brain, measured (not corrected for residual blood)","40 mg/kg BW i.v., 12 h",0.12 nmol/g
same,"Av. conc. in brain, calculated (corrected for residual blood)","40 mg/kg BW i.v., 24 h",0.00 nmol/g
same,"Av. conc. in brain, measured (not corrected for residual blood)","40 mg/kg BW i.v., 24 h",0.00 nmol/g
same,Brain peak concentration above plasma IC50,40 mg/kg BW i.v.,approximately 40 fold
same,Peak concentration in the brain after correction for residual blood,120 mg/kg BW i.v.,16.7 µM
same,"Av. conc. in brain, calculated (corrected for residual blood)","120 mg/kg BW i.v., 0 h",0 nmol/g and 0.00 nmol/g
same,"Av. conc. in brain, measured (not corrected for residual blood)","120 mg/kg BW i.v., 0 h",22.2 nmol/g
same,"Av. conc. in brain, calculated (corrected for residual blood)","120 mg/kg BW i.v., 0.5 h",16.7 nmol/g
same,"Av. conc. in brain, measured (not corrected for residual blood)","120 mg/kg BW i.v., 0.5 h",25.8 nmol/g
same,"Av. conc. in brain, calculated (corrected for residual blood)","120 mg/kg BW i.v., 2 h",15.3 nmol/g
same,"Av. conc. in brain, measured (not corrected for residual blood)","120 mg/kg BW i.v., 2 h",17.1 nmol/g
same,"Av. conc. in brain, calculated (corrected for residual blood)","120 mg/kg BW i.v., 6 h",5.0 nmol/g and 4.96 nmol/g
same,"Av. conc. in brain, measured (not corrected for residual blood)","120 mg/kg BW i.v., 6 h",5.36 nmol/g
same,"Av. conc. in brain, calculated (corrected for residual blood)","120 mg/kg BW i.v., 12 h",1.0 nmol/g and 1.00 nmol/g
same,"Av. conc. in brain, measured (not corrected for residual blood)","120 mg/kg BW i.v., 12 h",1.11 nmol/g
same,"Av. conc. in brain, calculated (corrected for residual blood)","120 mg/kg BW i.v., 24 h",0.02 nmol/g
same,"Av. conc. in brain, measured (not corrected for residual blood)","120 mg/kg BW i.v., 24 h",0.03 nmol/g
same,Brain peak concentration above plasma IC50,120 mg/kg BW i.v.,~450 fold
same,Increase of tissue penetration ratio from the low to the high dose,120 vs 40 mg/kg BW i.v.,1.63 fold
same,AUMC,"brain, 40 mg/kg BW i.v.",39.2 nmol x h^2/mL
same,AUC,"brain, 40 mg/kg BW i.v., 24 h",10.6 nmol x h/mL
same,AUMC,"brain, 120 mg/kg BW i.v.",395 nmol x h^2/mL
same,AUC,"brain, 120 mg/kg BW i.v., 24 h",115 nmol x h/mL
same,Time of peak plasma values,"first sampling time point, 40 and 120 mg/kg BW i.v.",0 h
same,Entry into brain tissue,"hCETPtg mice, i.v. injection",does enter the mouse brain tissue
same,AUMC,"liver, 40 mg/kg BW i.v.",1183 nmol x h^2/mL
same,AUC,"liver, 40 mg/kg BW i.v., 24 h",267 nmol x h/mL
same,t1/2β (half-life),"liver, 40 mg/kg BW i.v., 40 mg/kg",3.0 h
same,AUMC,"liver, 120 mg/kg BW i.v.",3167 nmol x h^2/mL
same,AUC,"liver, 120 mg/kg BW i.v., 24 h",881 nmol x h/mL
same,Kβ (elimination rate constant),[1],0.2 h⁻¹
same,t1/2β (half-life),[1],3.2 h
same,k el,[2],5.56e-05 s⁻¹
same,half-life,[2],2.8 h
same,k el,[3],8.33e-05 s⁻¹
same,half-life,[3],2.5 h
same,Kp,"male, hCETPtg (C57BL/6J background), mouse, brain, iv, 40 mg/kg BW i.v.",0.08
same,Kp,"male, hCETPtg (C57BL/6J background), mouse, brain, iv, 120 mg/kg BW i.v.",0.13
same,Tmax,"male, hCETPtg (C57BL/6J background), mouse, brain, iv, both doses, 40 and 120 mg/kg BW i.v., read-out: Time of peak concentration in the brain",0.5 h
same,MRT,"male, hCETPtg (C57BL/6J background), mouse, iv, brain, 40 mg/kg BW i.v.",3.7 h
same,MRT,"male, hCETPtg (C57BL/6J background), mouse, iv, brain, 120 mg/kg BW i.v.",3.4 h
same,MRT,"male, hCETPtg (C57BL/6J background), mouse, iv, liver, 40 mg/kg BW i.v.",4.4 h
same,MRT,"male, hCETPtg (C57BL/6J background), mouse, iv, liver, 120 mg/kg BW i.v.",3.6 h
same,clearance,[4],0.157 mL/min
same,MRT,[4],2 h
same,Vd,[4],0.0185 L
same,clearance,[5],0.055 mL/min
same,MRT,[5],1.6 h
same,Vd,[5],0.0053 L
same,k el,[6],5.56e-05 s⁻¹
same,half-life,[6],2.8 h
same,k el,[7],8.33e-05 s⁻¹
same,half-life,[7],2.5 h
same,k el,[8],0.000111 s⁻¹
same,half-life,[8],2.3 h
same,k el,[9],5.56e-05 s⁻¹
same,half-life,[9],3 h
same,AUMC,"plasma, 40 mg/kg BW i.v.",398 nmol x h^2/mL
same,Kα,"plasma, 40 mg/kg BW i.v.",6.5 h⁻¹
same,t1/2α,"plasma, 40 mg/kg BW i.v.",0.1 h
same,AUC,"plasma, 40 mg/kg BW i.v., 24 h",203 nmol x h/mL
same,AUMC,"plasma, 120 mg/kg BW i.v.",2297 nmol x h^2/mL
same,Kα,"plasma, 120 mg/kg BW i.v.",1.8 h⁻¹
same,t1/2α,"plasma, 120 mg/kg BW i.v.",0.4 h
same,AUC,"plasma, 120 mg/kg BW i.v., 24 h",1418 nmol x h/mL
